Target: T1, Cathepsin K (Homo sapiens, UniProt P43235)
T1 sequence (P43235 whole entry): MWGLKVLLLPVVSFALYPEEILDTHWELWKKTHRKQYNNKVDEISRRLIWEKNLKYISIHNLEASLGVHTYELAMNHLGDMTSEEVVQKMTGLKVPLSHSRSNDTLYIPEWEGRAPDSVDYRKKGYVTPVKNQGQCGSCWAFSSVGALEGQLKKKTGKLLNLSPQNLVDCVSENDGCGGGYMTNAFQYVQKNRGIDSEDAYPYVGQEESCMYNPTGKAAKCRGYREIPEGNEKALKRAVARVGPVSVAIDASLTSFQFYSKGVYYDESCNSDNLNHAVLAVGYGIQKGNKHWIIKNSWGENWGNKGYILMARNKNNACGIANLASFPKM
Assay: Inhibition of human cathepsin K

| IC50 [nM] | pIC50 | SMILES |
| --- | --- | --- |
| 6.92 |  | CCCC[C@H](NC(=O)O[C@@H]1CN(C(=O)c2ccc(-c3ccccc3)cc2)CC1(C)C)C(=O)C(=O)N[C@H](C)c1ccccc1 |
| 2.09 |  | CCCC[C@H](NC(=O)O[C@@H]1CN(C(=O)OCc2ccc(-c3ccccc3)cc2)CC1(C)C)C(=O)C(=O)N[C@H](C)c1ccccc1 |
| 1.7 |  | CCCC[C@H](NC(=O)O[C@@H]1CN(C(=O)c2ccc3cc[nH]c3c2)CC1(C)C)C(=O)C(=O)N[C@H](C)c1ccccc1 |
| 17 |  | CCCC[C@H](NC(=O)O[C@@H]1CN(S(=O)(=O)Cc2ccccc2)CC1(C)C)C(=O)C(=O)N[C@H](C)c1ccccc1 |
| 3.8 |  | CCCC[C@H](NC(=O)O[C@@H]1CN(C(=O)NCc2ccccc2)CC1(C)C)C(=O)C(=O)N[C@H](C)c1ccccc1 |
| 15.1 |  | CCCC[C@H](NC(=O)O[C@@H]1CN(C(=O)c2c(C)noc2C)CC1(C)C)C(=O)C(=O)N[C@H](C)c1ccccc1 |
| 4.27 |  | CCCC[C@H](NC(=O)O[C@@H]1CN(C(=O)Nc2ccccc2)CC1(C)C)C(=O)C(=O)N[C@H](C)c1ccccc1 |
| 32.4 |  | CCCC[C@H](NC(=O)O[C@@H]1CN(C(=O)OCCc2ccccc2)CC1(C)C)C(=O)C(=O)N[C@H](C)c1ccccc1 |
| 2.82 |  | CCCC[C@H](NC(=O)O[C@@H]1CN(C(=O)c2cc3ccccc3s2)CC1(C)C)C(=O)C(=O)N[C@H](C)c1ccccc1 |
| 64.6 |  | CCCC[C@H](NC(=O)O[C@@H]1CN(C(=O)c2ccccc2)CC1(C)C)C(=O)C(=O)N[C@H](C)c1ccccc1 |
| 8.32 |  | CCCC[C@H](NC(=O)O[C@@H]1CN(S(=O)(=O)c2ccccc2)CC1(C)C)C(=O)C(=O)N[C@H](C)c1ccccc1 |
| 3.02 |  | CCCC[C@H](NC(=O)O[C@@H]1CN(C(=O)Cc2ccccc2)CC1(C)C)C(=O)C(=O)N[C@H](C)c1ccccc1 |
| 26.9 |  | CCCC[C@H](NC(=O)O[C@@H]1CN(C(=O)CCCc2ccccc2)CC1(C)C)C(=O)C(=O)N[C@H](C)c1ccccc1 |
| 6.61 |  | CCCC[C@H](NC(=O)O[C@@H]1CN(C(=O)NCCc2ccccc2)CC1(C)C)C(=O)C(=O)N[C@H](C)c1ccccc1 |
| 0.832 |  | CCCC[C@H](NC(=O)O[C@@H](Cc1nnc(-c2ccccc2)o1)C(C)C)C(=O)C(=O)N[C@H](C)c1ccccc1 |
| 1.58 |  | CCCC[C@H](NC(=O)O[C@@H]1CN(C(=O)c2ccc3ccccc3c2)CC1(C)C)C(=O)C(=O)N[C@H](C)c1ccccc1 |
| 0.646 |  | CCCC[C@H](NC(=O)O[C@H](Cc1nnc(-c2ccc(F)cc2)o1)C(C)(C)C)C(=O)C(=O)N[C@H]1CCCNC1=O |
| 20.9 |  | CCCC[C@H](NC(=O)O[C@@H]1CN(Cc2ccccc2)CC1(C)C)C(=O)C(=O)N[C@H](C)c1ccccc1 |
| 8.91 |  | CCCC[C@H](NC(=O)O[C@@H]1CN(C(=O)c2ccno2)CC1(C)C)C(=O)C(=O)N[C@H](C)c1ccccc1 |
| 14.1 |  | CCCC[C@H](NC(=O)O[C@@H]1CN(C(=O)c2cccnc2)CC1(C)C)C(=O)C(=O)N[C@H](C)c1ccccc1 |
| 0.417 |  | CCCC[C@H](NC(=O)O[C@@H]1CN(C(=O)c2ccc(C(F)(F)F)cc2)CC1(C)C)C(=O)C(=O)Nc1cc[nH]n1 |
| 0.0257 |  | CCCC[C@H](NC(=O)O[C@H](Cn1cc(-c2ccc(C(F)(F)F)cc2)cn1)C(C)(C)C)C(=O)C(=O)Nc1ccn[nH]1 |
|  | 10.6 | CCCC[C@H](NC(=O)O[C@H](Cn1cnc(-c2ccc(C(F)(F)F)cc2)c1)C(C)(C)C)C(=O)C(=O)Nc1ccn[nH]1 |

| SMILES | IC50 [nM] | pIC50 |
| --- | --- | --- |
| CCCC[C@H](NC(=O)O[C@@H]1CN(C(=O)Oc2ccc3ccccc3c2)CC1(C)C)C(=O)C(=O)N[C@H](C)c1ccccc1 | 57.5 |  |
| CCCC[C@H](NC(=O)O[C@@H]1CN(C(=O)Oc2ccc(-c3ccccc3)cc2)CC1(C)C)C(=O)C(=O)N[C@H](C)c1ccccc1 | 5.01 |  |
| CCCC[C@H](NC(=O)O[C@@H]1CN(C(=O)Oc2ccccc2)CC1(C)C)C(=O)C(=O)N[C@H](C)c1ccccc1 | 28.8 |  |
